The values that follow come from US20240425523A1, “Compounds for the Degradation of EGFR Kinase” (Beigene Switzerland GMBH, priority 2023, published 2024).

For orientation: DC50 means the concentration giving 50% degradation. Low readings indicate a more potent degrader, high ones a less potent degrader. The term Dmax denotes the largest share of the target that was removed. The low end stands for shallow degradation, the high end for deep degradation.

Experiment [1] deals with T1, EGFR L858R (BaF3-L858R cells) (Homo sapiens, UniProt P00533, L858R).
T1 construct: host or cells: BaF3
Kind of experiment: Cell degradation of EGFR, HTRF assay, BaF3-L858R cells. The note with it: 16 h treatment; for DC50: EGFR degradation; for Dmax: maximum percentage of degradation. The format is cell-based. Here is the method:
BaF3-L858R (abbv. L858R) cell were purchased from Kangyuan Bochuang Biotechnology (Beijing) Co., Ltd.
(§1) H1975-#8 and BaF3-L858R cells are treated with compounds diluted in 0.1% DMSO cell culture medium on day 2, incubate for 16 h, 37° C., 5% CO2. the final concentration of compounds in all assay is start with 10 uM, 5-fold dilution, total 8 doses were included.
(§2) After 16 h treatment, for H1975-#8 cells, add 100 ul HTRF 1× lysis buffer to each well; for BaF3-L858R cells, add 20 μl 4× lysis buffer to each well; seal the plate and incubate 1 hour at room temperature on a plate shaker; Once the cells are lysed, 16 μL of cell lysate are transferred to a PE 384-well HTRF detection plate; 4 μL of pre-mixed HTRF antibodies are added to each well; Cover the plate with a plate sealer, spin 1000 rpm for 1 min, Incubate overnight at room temperature; Read on BMG PheraStar with HTRF protocol (337 nm-665 nm-620 nm).
(§3) High control=Cell group with added DMSO and without compound, indicating microplate readings without EGFR degradation;
(§4) Dmax is the maximum percentage of inhibition (degradation).
(§5) The IC50 (DC50) value of a compound can be obtained by fitting the following equation
(§6) Y=Bottom+(TOP−Bottom)/(1+((IC50/X)^hillslope))
(§7) Wherein, X and Y are known values, and IC50, Hillslope, Top and Bottom are the parameters obtained by fitting with software. […] The experimental data were fitted by calculating and analyzing with Dotmatics data analysis software.
A general note: Time-resolved FRET reads energy transfer from a long-lived donor to a nearby acceptor.

For experiment [2], the target named is T2, EGFR-L858R/C797S (H1975-clone #8 cells) (Homo sapiens, UniProt P00533, C797S/L858R).
T2 construct: expressed in transfected cells; host or cells: H1975 (endogenous EGFR knocked out, clone #8)
Kind of experiment: Cell degradation of EGFR, HTRF assay, H1975-clone#8 (L858R/C797S) cells. The format is cell-based. The settings on record: 16 h treatment; for DC50: EGFR degradation; for Dmax: maximum percentage of degradation. Here is the method: The EGFR over-expressed cells then underwent knockout, in which the EGFR targeting sgRNA was designed to only target the endogenous EGFR copies and preserve the exogenous EGFR copies. Followed by the knockout, the edited H1975 cells were seeded in 96 well plates at the concentration of […], cultured for about 2 weeks to allow single clones formation. The formed clones were screened by DNA sequencing and whole exon sequencing analysis for the desired edition.
as §1, §2, §3, §4, §5, §6, §7

T1 sequence (P00533 25-1210 L858R): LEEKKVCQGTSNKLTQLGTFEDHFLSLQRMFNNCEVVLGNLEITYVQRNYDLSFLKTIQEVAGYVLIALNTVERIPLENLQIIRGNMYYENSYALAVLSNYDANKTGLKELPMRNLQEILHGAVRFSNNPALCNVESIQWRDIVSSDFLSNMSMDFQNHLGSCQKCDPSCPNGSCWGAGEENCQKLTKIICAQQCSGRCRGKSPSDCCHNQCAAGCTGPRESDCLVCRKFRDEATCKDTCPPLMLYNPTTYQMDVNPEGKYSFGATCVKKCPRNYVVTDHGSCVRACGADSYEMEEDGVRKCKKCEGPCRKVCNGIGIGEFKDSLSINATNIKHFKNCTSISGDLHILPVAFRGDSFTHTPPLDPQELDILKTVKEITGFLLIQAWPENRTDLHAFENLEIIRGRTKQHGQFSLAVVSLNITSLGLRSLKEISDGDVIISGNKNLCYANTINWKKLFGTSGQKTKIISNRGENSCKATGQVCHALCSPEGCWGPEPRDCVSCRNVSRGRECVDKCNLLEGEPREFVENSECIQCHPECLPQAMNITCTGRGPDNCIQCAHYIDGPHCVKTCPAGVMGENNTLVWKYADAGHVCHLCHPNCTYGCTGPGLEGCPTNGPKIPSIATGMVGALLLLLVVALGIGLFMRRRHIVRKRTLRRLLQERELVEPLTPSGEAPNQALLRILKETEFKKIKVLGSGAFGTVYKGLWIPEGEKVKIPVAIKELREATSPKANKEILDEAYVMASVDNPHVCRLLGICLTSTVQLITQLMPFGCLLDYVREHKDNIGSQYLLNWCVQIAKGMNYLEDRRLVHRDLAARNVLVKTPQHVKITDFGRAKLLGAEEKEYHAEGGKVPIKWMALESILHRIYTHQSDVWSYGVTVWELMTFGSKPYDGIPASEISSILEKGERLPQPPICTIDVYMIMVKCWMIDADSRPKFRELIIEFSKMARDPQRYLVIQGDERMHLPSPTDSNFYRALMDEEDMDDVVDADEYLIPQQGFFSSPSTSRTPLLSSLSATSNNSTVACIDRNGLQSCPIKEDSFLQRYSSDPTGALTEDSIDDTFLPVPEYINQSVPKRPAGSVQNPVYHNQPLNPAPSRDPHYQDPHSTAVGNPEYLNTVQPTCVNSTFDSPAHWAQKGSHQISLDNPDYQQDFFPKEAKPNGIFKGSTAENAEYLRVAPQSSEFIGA
T2 sequence (P00533 25-1210 C797S/L858R): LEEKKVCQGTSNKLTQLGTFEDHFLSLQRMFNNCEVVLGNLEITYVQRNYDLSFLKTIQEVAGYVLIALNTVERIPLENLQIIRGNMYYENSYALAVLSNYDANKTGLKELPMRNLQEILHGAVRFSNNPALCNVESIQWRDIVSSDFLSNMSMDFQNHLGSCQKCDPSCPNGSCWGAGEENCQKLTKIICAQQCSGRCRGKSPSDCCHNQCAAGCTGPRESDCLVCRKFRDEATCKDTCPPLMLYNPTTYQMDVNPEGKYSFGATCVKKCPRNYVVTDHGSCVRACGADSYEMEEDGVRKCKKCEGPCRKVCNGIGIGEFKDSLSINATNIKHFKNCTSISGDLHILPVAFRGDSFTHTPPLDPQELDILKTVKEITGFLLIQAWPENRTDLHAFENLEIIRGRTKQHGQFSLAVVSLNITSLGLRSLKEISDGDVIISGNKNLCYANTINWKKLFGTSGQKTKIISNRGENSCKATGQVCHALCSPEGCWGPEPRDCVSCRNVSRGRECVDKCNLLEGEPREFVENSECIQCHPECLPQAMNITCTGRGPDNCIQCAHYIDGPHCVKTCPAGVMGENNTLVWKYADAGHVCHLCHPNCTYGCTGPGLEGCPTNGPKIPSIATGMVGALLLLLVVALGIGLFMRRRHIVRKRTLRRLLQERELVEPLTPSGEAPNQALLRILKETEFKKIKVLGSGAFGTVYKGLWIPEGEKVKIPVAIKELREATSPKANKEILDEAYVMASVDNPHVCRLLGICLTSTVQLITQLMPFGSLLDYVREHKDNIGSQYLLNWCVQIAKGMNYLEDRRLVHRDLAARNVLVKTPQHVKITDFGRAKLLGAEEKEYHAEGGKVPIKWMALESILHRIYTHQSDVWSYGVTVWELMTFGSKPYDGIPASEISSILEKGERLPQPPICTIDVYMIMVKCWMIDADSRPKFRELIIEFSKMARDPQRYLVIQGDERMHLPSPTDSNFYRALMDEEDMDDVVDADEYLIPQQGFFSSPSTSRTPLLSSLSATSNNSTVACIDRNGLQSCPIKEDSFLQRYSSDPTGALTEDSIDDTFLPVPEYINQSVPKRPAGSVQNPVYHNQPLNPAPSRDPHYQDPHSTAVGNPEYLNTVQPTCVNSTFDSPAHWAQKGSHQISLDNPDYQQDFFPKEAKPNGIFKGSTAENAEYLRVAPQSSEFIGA

In experiment [1], `Cc1cc2cc(n1)-c1cnn(C)c1OC[C@H]1CC[C@H](C1)CN1/C(=N/C2=O)Nc2ccc(N3CCN(C4CCN(c5cccc6c5C(C)(C)C(=O)N6C5CCC(=O)NC5=O)CC4)CC3)cc21` (stereo partly drawn) [Example 5, 3-(4-(4-(4-((7^1R,7^3S,E)-1^1,2^6-dimethyl-3-oxo-5^2,5^3-dihydro-1^1H,5^1H-9-oxa-4-aza-5(2,1)-benzo[d]imidazola-2(2,4)-pyridina-1(4,5)-pyrazola-7(1,3)-cyclopentanacyclononaphane-5^6-yl)piperazin-1-yl)piperidin-1-yl)-3,3-dimethyl-2-oxoindolin-1-yl)piperidine-2,6-dione] had a DC50 of 1.01 nM and a Dmax of 84.4%. In experiment [2], this compound had a DC50 of 0.856 nM and a Dmax of 75.7%.

In the case of `COC[C@@H]1CN(c2ccc3c(c2)N2C[C@@H]4CC[C@H](COc5c(c(C)nn5C)-c5cc(cc(C)n5)C(=O)/N=C/2N3)C4)CCN1C1CCN(c2c(C)cc(C3CCC(=O)NC3=O)nc2C)CC1` (stereo partly drawn) [Example 147, 3-(5-(4-((S)-2-(methoxymethyl)-4-((7^1R,7^3S,E)-1^1,1^3,2^6-trimethyl-3-oxo-5^2,5^3-dihydro-1^1H,5^1H-9-oxa-4-aza-5(2,1)-benzo[d]imidazola-2(2,4)-pyridina-1(4,5)-pyrazola-7(1,3)-cyclopentanacyclononaphane-5^6-yl)piperazin-1-yl)piperidin-1-yl)-4,6-dimethylpyridin-2-yl)piperidine-2,6-dione], the DC50 in experiment [1] was 1.04 nM; in experiment [2], 2.02 nM. Besides, the Dmax in experiment [1] came to 87.6%; in experiment [2], 63.2%.

Consider `Cc1cc2cc(n1)-c1cnn(C)c1OC[C@H]1CC[C@H](C1)CN1/C(=N/C2=O)Nc2ccc(N3CCN(C4CCN(c5cc(F)c([C@H]6CCC(=O)NC6=O)c(F)c5)CC4)CC34COC4)cc21` [Example 10, (R)-3-(4-(4-(5-((7^1R,7^3S,E)-1^1,2^6-dimethyl-3-oxo-5^2,5^3-dihydro-1^1H,5^1H-9-oxa-4-aza-5(2,1)-benzo[d]imidazola-2(2,4)-pyridina-1(4,5)-pyrazola-7(1,3)-cyclopentanacyclononaphane-5^6-yl)-2-oxa-5,8-diazaspiro[3.5]nonan-8-yl)piperidin-1-yl)-2,6-difluorophenyl)piperidine-2,6-dione], for which the DC50 in experiment [1] is 4.07 nM; in experiment [2], 3.15 nM. Moreover, the Dmax in experiment [1] amounted to 73%; in experiment [2] it was 66.8%.

With `Cc1cc2cc(n1)-c1cnn(C)c1OC[C@H]1CC[C@H](C1)CN1/C(=N/C2=O)Nc2ccc(N3CCN([C@@H]4CCN(c5ccc(C6CCC(=O)NC6=O)nc5C)C[C@@H]4F)CC3)cc21` (stereo partly drawn) [Example 12, 3-(5-((3S,4R)-4-(4-((7^1R,7^3S,E)-1^1,2^6-dimethyl-3-oxo-5^2,5^3-dihydro-1^1H,5^1H-9-oxa-4-aza-5(2,1)-benzo[d]imidazola-2(2,4)-pyridina-1(4,5)-pyrazola-7(1,3)-cyclopentanacyclononaphane-5^6-yl)piperazin-1-yl)-3-fluoropiperidin-1-yl)-6-methylpyridin-2-yl)piperidine-2,6-dione], the values for the DC50 in experiment [1] and in experiment [2] were 0.493 nM and 0.774 nM, respectively. Also, the figures for the Dmax in experiment [1] and in experiment [2] were 90% and 88.4%, respectively.

As to `Cc1cc2cc(n1)-c1cnn(C)c1OC[C@H]1CC[C@H](C1)CN1/C(=N/C2=O)Nc2ccc(N3CCN(CCc4c(C)cc(C5CCC(=O)NC5=O)nc4C)CC3)cc21` (stereo partly drawn) [Example 7, 3-(5-(2-(4-((7^1R,7^3S,E)-1^1,2^6-dimethyl-3-oxo-5^2,5^3-dihydro-1^1H,5^1H-9-oxa-4-aza-5(2,1)-benzo[d]imidazola-2(2,4)-pyridina-1(4,5)-pyrazola-7(1,3)-cyclopentanacyclononaphane-5^6-yl)piperazin-1-yl)ethyl)-4,6-dimethylpyridin-2-yl)piperidine-2,6-dione], in experiment [1], the DC50 came to 0.631 nM and the Dmax was 99.4%. Moreover, in experiment [2], it took 2.03 nM to reach half-maximal degradation (DC50) and the Dmax was 45.4%.

Regarding `Cc1cc2cc(n1)-c1cnn(C)c1OC[C@H]1CC[C@H](C1)CN1/C(=N/C2=O)Nc2ccc(N3CCN(CC4CCN(c5ccc(C6CCC(=O)NC6=O)nc5C)CC4)CC3)cc21` (stereo partly drawn) [Example 23, 3-(5-(4-((4-((7^1R,7^3S,E)-1^1,2^6-dimethyl-3-oxo-5^2,5^3-dihydro-1^1H,5^1H-9-oxa-4-aza-5(2,1)-benzo[d]imidazola-2(2,4)-pyridina-1(4,5)-pyrazola-7(1,3)-cyclopentanacyclononaphane-5^6-yl)piperazin-1-yl)methyl)piperidin-1-yl)-6-methylpyridin-2-yl)piperidine-2,6-dione], in experiment [1], half-maximal degradation (DC50) was put at 12.8 nM and the Dmax came to 86%. For the same compound, in experiment [2], the DC50 is 0.608 nM and the Dmax was 55%.

`Cc1cc2cc(n1)-c1cnn(C)c1OC[C@H]1CC[C@H](C1)CN1/C(=N/C2=O)Nc2ccc(N3CCN([C@H]4CCN(c5ccc(C6CCC(=O)NC6=O)nc5C)C[C@H]4F)CC3)cc21` (stereo partly drawn) [Example 15, 3-(5-((3R,4S)-4-(4-((7^1R,7^3S,E)-1^1,2^6-dimethyl-3-oxo-5^2,5^3-dihydro-1^1H,5^1H-9-oxa-4-aza-5(2,1)-benzo[d]imidazola-2(2,4)-pyridina-1(4,5)-pyrazola-7(1,3)-cyclopentanacyclononaphane-5^6-yl)piperazin-1-yl)-3-fluoropiperidin-1-yl)-6-methylpyridin-2-yl)piperidine-2,6-dione]: in experiment [1], half-maximal degradation (DC50) was put at 7.6 nM and the Dmax was 94.2%. In experiment [2], this compound displayed a DC50 of 11.1 nM and a Dmax of 85.2%.

Consider `Cc1cc2cc(n1)-c1cnn(C)c1OC[C@H]1CC[C@H](C1)CN1/C(=N/C2=O)Nc2ccc(N3CCN([C@@H]4CCN(c5cc(F)c(C6CCC(=O)NC6=O)nc5C)C[C@@H]4F)CC3)cc21` (stereo partly drawn) [Example 14, 3-(5-((3S,4R)-4-(4-((7^1R,7^3S,E)-1^1,2^6-dimethyl-3-oxo-5^2,5^3-dihydro-1^1H,5^1H-9-oxa-4-aza-5(2,1)-benzo[d]imidazola-2(2,4)-pyridina-1(4,5)-pyrazola-7(1,3)-cyclopentanacyclononaphane-5^6-yl)piperazin-1-yl)-3-fluoropiperidin-1-yl)-3-fluoro-6-methylpyridin-2-yl)piperidine-2,6-dione], for which the DC50 in experiment [1] is 0.552 nM; in experiment [2], 0.616 nM. The Dmax in experiment [1] came to 84%; in experiment [2], 90.9%.

With `Cc1cc2cc(n1)-c1cnn(C)c1OC[C@H]1CC[C@H](C1)CN1/C(=N/C2=O)Nc2ccc(N3CCN([C@@H]4CCN(c5cnc(C6CCC(=O)NC6=O)cc5C)C[C@@H]4F)CC3)cc21` (stereo partly drawn) [Example 21, 3-(5-((3S,4R)-4-(4-((7^1R,7^3S,E)-1^1,2^6-dimethyl-3-oxo-5^2,5^3-dihydro-1^1H,5^1H-9-oxa-4-aza-5(2,1)-benzo[d]imidazola-2(2,4)-pyridina-1(4,5)-pyrazola-7(1,3)-cyclopentanacyclononaphane-5^6-yl)piperazin-1-yl)-3-fluoropiperidin-1-yl)-4-methylpyridin-2-yl)piperidine-2,6-dione], the DC50 in experiment [1] was determined as 2.99 nM; in experiment [2], 0.782 nM. Moreover, the Dmax worked out at 99% in experiment [1] and 83.2% in experiment [2].
